US9200015B2, “Inositol hexakisphosphate analogs and uses thereof” (priority 2011, dated 2015)
“Also recorded” adds a separate entry of the source. Like-named read-outs stand apart in the source and are kept apart here.

How the values were obtained:
TcdA and TcdB holotoxins [1] = type: biochemical, Clostridium difficile; conditions: for AC50: read-out: AC50 (concentration that provides half the maximum activity)
Procedure: (§1) In Vitro Testing of Nitroso-InsP6 Derivatives. In vitro testing and measurement of binding affinities of compounds are performed using toxin cleavage assays, and by radioligand or BIACORE-toxin binding studies, respectively. For medium throughput toxin cleavage assays, autocleavage of 1 μg TcdA and TcdB holotoxins is performed in 25 μL 20 mM Tris-HCI, 150 mM NaCI (pH 7.4) with and without InsP6 for 10-60 min at 37° C. (FIG. 6). Cleavage reactions are then stopped with SDS-PAGE loading buffer and boiling at 96° C. for 5 min. Samples are then run under reducing conditions on 4-20% gradient gels and cleavage products stained with GelcodeBiue™ for 1 hr and cleared in water overnight. AC50 and IC50 concentrations are calculated by measuring the relative absorbance of cleavage fragments relative to intact toxin using a LiCor Odyssey infrared scanner (λ=680 nm). Cleavage is plotted against ligand concentration using four-parameter logistic curve fitting on SigmaPlot 11.0 software. If the toxin cleavage efficiency remains unaltered in purified nitroso-InsP6 fractions, then toxin Rac1 glucosylation and cell rounding assays are initiated to evaluate cytoprotection in cell culture systems. […] Thus, enzymatic digestions of nitroso-InsP6 derivatives are carried out with EC 3.1.3.8 (type 3 phytase); EC 3.1.3.72 (type 5 phytase), and EC 3.1.3.26 (type 4/6 phytase) to test whether the NO-modifications are nonhydrolysable (e.g., FIG. 7).

phytase = conditions: FIG. 7
Procedure: In Vitro Testing of Nitroso-InsP6 Derivatives. In vitro testing and measurement of binding affinities of compounds are performed using toxin cleavage assays, and by radioligand or BIACORE-toxin binding studies, respectively. For medium throughput toxin cleavage assays, autocleavage of 1 μg TcdA and TcdB holotoxins is performed in 25 μL 20 mM Tris-HCI, 150 mM NaCI (pH 7.4) with and without InsP6 for 10-60 min at 37° C. (FIG. 6). Cleavage reactions are then stopped with SDS-PAGE loading buffer and boiling at 96° C. for 5 min. Samples are then run under reducing conditions on 4-20% gradient gels and cleavage products stained with GelcodeBiue™ for 1 hr and cleared in water overnight. AC50 and IC50 concentrations are calculated by measuring the relative absorbance of cleavage fragments relative to intact toxin using a LiCor Odyssey infrared scanner (λ=680 nm). Cleavage is plotted against ligand concentration using four-parameter logistic curve fitting on SigmaPlot 11.0 software. If the toxin cleavage efficiency remains unaltered in purified nitroso-InsP6 fractions, then toxin Rac1 glucosylation and cell rounding assays are initiated to evaluate cytoprotection in cell culture systems. […]

[2] = test system: C. difficile (strain VPI 10463); test: Murine CDI model, InsP6 given intragastrically; type: in vivo, C57BL/6 mice; conditions: for Protection of mice from CDI (survival): oral/intragastric 0.25 and 2.5 mg/kg/day, 10^6 C. difficile, survival at day 6
Procedure: FIGS. 3A-3D show therapeutic allostery and examples of the assays to test designed compounds. […] (FIGS. 3C-3D) Kaplan-Meier survival plots of infected mice. C57BL/6 mice were inoculated with 10^6 C. difficile.
Optimization of Phytase-Resistant InsP6 Analogues for CDI Therapy. Aspects of the present invention provide compositions and methods of neutralizing C. difficile exotoxins in the extracellular gut environment. […] C57BL/6 mice were administered antibiotics and then orally inoculated with 10^4-to-10^6 C. difficile (strain VPI 10463). Disease outcome measures included evidence of inflammation and fluid secretion in the caecum and colon of severely afflicted animals, and of characteristic pseudomembraneous histopathologic lesions in the colonic mucosa. […] The highest bacterial dose (10^6 CFU) was used to test for InsP6 efficacy given intra-gastrically (0.25-to-2.5 mg/kg/day; range is within the recommended oral daily dose for humans (1,020 mg/day)).

C. difficile = test: Experimental CDI model, delivery by implanted mini-osmotic pumps; type: in vivo, mice; conditions: 12.5 mg/kg/day by 7 day mini-osmotic pumps, from 1 day before inoculation with 10^6 bacteria
Source text: In this set of experiments, vehicle treatment was associated with 100% mortality, vs. 40% and 10% for InsP6 and nitroso-InsP6 groups, respectively.
Because of the current uncertainty of the nitroso-InsP6 chemistry, there may be potential limitations to oral nitroso-InsP6 delivery as this molecule may show poor colonic bioavailability due to degradation and absorption in the small intestine.

TcdA and TcdB holotoxins [3] = target: TcdA and TcdB holotoxins (Clostridioides difficile, UniProt P18177); type: biochemical, Clostridium difficile
Procedure: as §1

Caco-2 colonocytes = test: Inhibition of toxin-induced cytotoxicity in Caco-2 colonocytes; type: cell-based; conditions: Homo sapiens, FIG. 3A right
[4] = Table 1, representative inositol analogs

Sequence of TcdA and TcdB holotoxins (Clostridioides difficile, UniProt P18177) (P18177 2-2366 limits assumed): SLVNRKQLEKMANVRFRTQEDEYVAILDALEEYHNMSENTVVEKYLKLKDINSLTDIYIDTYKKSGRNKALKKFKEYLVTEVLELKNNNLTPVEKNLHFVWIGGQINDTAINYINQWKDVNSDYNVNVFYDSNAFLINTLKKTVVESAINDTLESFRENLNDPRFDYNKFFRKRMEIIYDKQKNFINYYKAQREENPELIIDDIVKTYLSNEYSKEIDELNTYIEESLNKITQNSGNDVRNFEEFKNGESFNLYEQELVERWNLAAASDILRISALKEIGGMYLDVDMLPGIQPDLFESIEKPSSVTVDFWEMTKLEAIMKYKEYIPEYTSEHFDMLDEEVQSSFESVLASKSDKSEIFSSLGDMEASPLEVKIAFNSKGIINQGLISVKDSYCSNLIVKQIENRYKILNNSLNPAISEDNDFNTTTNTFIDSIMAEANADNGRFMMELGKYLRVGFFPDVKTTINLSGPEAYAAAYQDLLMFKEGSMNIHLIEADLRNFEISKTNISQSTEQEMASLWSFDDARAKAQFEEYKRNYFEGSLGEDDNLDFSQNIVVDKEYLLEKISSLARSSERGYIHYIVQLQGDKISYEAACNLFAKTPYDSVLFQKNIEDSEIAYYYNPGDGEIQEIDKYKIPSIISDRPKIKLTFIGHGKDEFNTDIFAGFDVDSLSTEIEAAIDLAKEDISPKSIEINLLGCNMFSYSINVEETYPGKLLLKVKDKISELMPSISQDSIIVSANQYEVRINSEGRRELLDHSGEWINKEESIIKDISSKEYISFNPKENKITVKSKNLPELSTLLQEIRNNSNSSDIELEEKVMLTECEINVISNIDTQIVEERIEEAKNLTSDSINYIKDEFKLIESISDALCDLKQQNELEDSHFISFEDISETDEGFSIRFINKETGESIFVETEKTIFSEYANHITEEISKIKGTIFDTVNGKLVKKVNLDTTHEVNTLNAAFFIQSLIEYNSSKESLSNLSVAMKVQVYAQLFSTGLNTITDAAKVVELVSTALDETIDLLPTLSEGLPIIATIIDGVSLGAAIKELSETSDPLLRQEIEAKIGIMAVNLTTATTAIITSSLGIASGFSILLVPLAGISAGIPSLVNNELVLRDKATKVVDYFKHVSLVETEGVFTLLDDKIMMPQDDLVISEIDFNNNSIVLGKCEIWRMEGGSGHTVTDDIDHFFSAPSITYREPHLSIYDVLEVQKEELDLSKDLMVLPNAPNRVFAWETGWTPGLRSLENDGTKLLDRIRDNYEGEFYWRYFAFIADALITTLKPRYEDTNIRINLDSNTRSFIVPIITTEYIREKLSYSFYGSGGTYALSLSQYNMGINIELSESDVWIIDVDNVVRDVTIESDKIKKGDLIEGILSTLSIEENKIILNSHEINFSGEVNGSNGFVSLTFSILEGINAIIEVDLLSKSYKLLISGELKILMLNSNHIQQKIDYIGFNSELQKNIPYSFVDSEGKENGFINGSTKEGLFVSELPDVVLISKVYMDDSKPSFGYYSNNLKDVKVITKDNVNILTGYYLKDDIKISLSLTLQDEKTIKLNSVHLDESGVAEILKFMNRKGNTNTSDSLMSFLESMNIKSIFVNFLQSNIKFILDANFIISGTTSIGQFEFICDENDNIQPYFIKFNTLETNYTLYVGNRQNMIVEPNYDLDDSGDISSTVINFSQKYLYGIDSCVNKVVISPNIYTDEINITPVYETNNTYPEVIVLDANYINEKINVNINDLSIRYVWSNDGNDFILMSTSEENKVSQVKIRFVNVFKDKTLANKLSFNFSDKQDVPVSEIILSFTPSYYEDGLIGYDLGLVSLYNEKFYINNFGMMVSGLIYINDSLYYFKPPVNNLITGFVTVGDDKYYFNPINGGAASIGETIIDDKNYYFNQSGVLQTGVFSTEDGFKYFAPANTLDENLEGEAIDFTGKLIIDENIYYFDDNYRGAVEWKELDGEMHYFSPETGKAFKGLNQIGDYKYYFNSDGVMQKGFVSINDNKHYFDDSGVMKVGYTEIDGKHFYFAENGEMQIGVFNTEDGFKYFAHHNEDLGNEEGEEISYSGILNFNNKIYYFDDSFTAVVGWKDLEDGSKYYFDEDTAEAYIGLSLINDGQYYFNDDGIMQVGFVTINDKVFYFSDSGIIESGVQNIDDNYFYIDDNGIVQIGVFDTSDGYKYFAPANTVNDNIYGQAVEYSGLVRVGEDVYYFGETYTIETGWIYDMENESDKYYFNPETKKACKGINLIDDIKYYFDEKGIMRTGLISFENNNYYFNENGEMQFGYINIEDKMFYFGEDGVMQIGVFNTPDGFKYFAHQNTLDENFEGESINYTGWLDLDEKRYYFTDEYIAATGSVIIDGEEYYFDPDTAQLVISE

How did the AC50 (TcdA and TcdB holotoxins [1]; [4]) turn out when `O=P(O)(O)OC1C(O)C(OP(=O)(O)O)C(OP(=O)(O)O)C(OP(=O)(O)O)C1O` (stereo not drawn) [Myo-InsP4(2,6), myo-inositol-(1,3,4,5-tetrakisphosphate)] was run?
Its AC50 is greater than 1000 µM.

`O=P(O)(O)OC1C(O)C(OP(=O)(O)O)C(OP(=O)(O)O)C(OP(=O)(O)O)C1O` (stereo not drawn) [Myo-InsP4(4,6), myo-inositol-(1,2,3,5-tetrakisphosphate)] was tested. Which AC50 (TcdA and TcdB holotoxins [1]; [4]) did it give?
The AC50 was greater than 1000 µM.

With `O=P(O)(O)OC1C(O)C(OP(=O)(O)O)C(OP(=O)(O)O)C(OP(=O)(O)O)C1OP(=O)(O)O` (stereo not drawn) [Myo-InsP5(1), myo-inositol-(2,3,4,5,6-pentakisphosphate)] as the molecule, how does the AC50 (TcdA and TcdB holotoxins [1]; [4]) read?
The AC50 was 8.67 µM.

With `O=P(O)(O)OC1C(O)C(OP(=O)(O)O)C(OP(=O)(O)O)C(OP(=O)(O)O)C1OP(=O)(O)O` (stereo not drawn) [Myo-InsP5(2), myo-inositol-(1,3,4,5,6-pentakisphosphate)] as the molecule, how does the AC50 (TcdA and TcdB holotoxins [1]; [4]) read?
Its AC50 is 10.5 µM.

With `O=P(O)(O)OC1C(O)C(OP(=O)(O)O)C(OP(=O)(O)O)C(OP(=O)(O)O)C1OP(=O)(O)O` (stereo not drawn) [Myo-InsP5(3), myo-inositol-(1,2,4,5,6-pentakisphosphate)] as the molecule, how does the AC50 (TcdA and TcdB holotoxins [1]; [4]) read?
Its AC50 is 95.6 µM.

How did the AC50 (TcdA and TcdB holotoxins [1]) turn out when `O=P(O)(O)OC1[C@H](OP(=O)(O)O)[C@H](OP(=O)(O)O)C(O)[C@H](OP(=O)(O)O)[C@H]1OP(=O)(O)O` (stereo partly drawn) [Myo-InsP5(4), myo-inositol-(1,2,3,5,6-pentakisphosphate)] was run?
The AC50 was greater than 1000 µM.

With `OP(O)(=S)OC1C(OP(O)(O)=S)C(OP(O)(O)=S)C(OP(O)(O)=S)C(OP(O)(O)=S)C1OP(O)(O)=S` [Myo-InsP6(S), myo-inositol-(1,2,3,4,5,6-phosphorothioate)] as the molecule, how does the Phytase resistance (phytase) read?
The Phytase resistance was “increased phytase resistance”.

And the AC50 (TcdA and TcdB holotoxins [1]; [4])?
The AC50 was 1.99 µM.

With `O=P(O)(O)O[C@H]1[C@H](OP(=O)(O)O)[C@@H](OP(=O)(O)O)[C@H](OP(=O)(O)O)[C@@H](OP(=O)(O)O)[C@H]1OP(=O)(O)O` [Myo-InsP6, myo-inositol-hexakisphosphate] as the molecule, how does the “Statistical significance of the protective effect” value ([2]; 2.5 mg/kg group) read?
Its value is “statistically significant”.

What about the “Protection of mice from CDI (survival)” value [2] of the same molecule?
Its value is “dose dependently protects mice from CDI; also recorded: dose-dependent protective effects”.

And the Mortality (C. difficile)?
The Mortality was 40%.

What about the “IC50, C. difficile toxins autocleaved” value (TcdA and TcdB holotoxins [3]; FIGS. 3A-3B) of the same molecule?
The value was 10 µM.

And the “AC50, toxin autocleavage” value (TcdA and TcdB holotoxins [3]; TcdB, FIG. 3A left)?
The value was 10 µM.

What about the AC50 (TcdA and TcdB holotoxins [1]) of the same molecule?
The AC50 was 14.8 µM.

What about the IC50 (Caco-2 colonocytes) of the same molecule?
The IC50 was 10 µM.

Which “Protection of mice from CDI (survival)” value [2] does the source give for `O[C@H]1[C@H](O)[C@@H](O)[C@H](O)[C@@H](O)[C@H]1O` [myo-inositol, (1R,2R,3S,4S,5R,6S)-cyclohexane-1,2,3,4,5,6-hexol] here?
The value was “not evident”.

How did the AC50 (TcdA and TcdB holotoxins [1]; [4]) turn out when “(1/3)-phospho-myo-inositol hexaakisphosphate [Myo-InsP7(1/3)]” was run?
The AC50 was 3.04 µM.

For inositolhexakissulfate [InS6], which “Toxin cleavage activity (preliminary studies)” value (TcdA and TcdB holotoxins [1]) is on record?
The value was “active compound”.
